Results on two compounds are retold here after article PMC11459959, “Discovery of new acetamide derivatives of 5-indole-1,3,4-oxadiazol-2-thiol as inhibitors of HIV-1 Tat-mediated viral transcription” (Antimicrobial Agents and Chemotherapy, 2024).

What all share (test): microbe, parasite or virus in culture
What all share (type): cell-based
Common to all, as to conditions: Human immunodeficiency virus 1, TZM-bl

Assay [1] deals with NRTI-resistant HIV-1 strain 7406.
Assay [2] relates to PI-resistant HIV-1 strain 11800.
In assay [3] the test system is NRTI-resistant HIV-1 strain 7396.
Assay [4] has as its system PI-resistant HIV-1 strain 11803.
The subject of assay [5] is NRTI-resistant HIV-1 strain 7407.

In general, EC50 refers to the midpoint of the concentration-response curve. A high value points to weaker potency. On to `Cc1[nH]c2ccc(-c3nnc(SCC(=O)N4CCCC4)o3)cc2c1C` [Compound 13, 2-((5-(2,3-Dimethyl-1H-indol-5-yl)-1,3,4-oxadiazol-2-yl)thio)-1-(pyrrolidin-1-yl)ethan-1-one], for which the EC50 is 0.16 ± 0.02 µM in assay [1]; 0.13 ± 0.1 µM in assay [2]; 0.15 ± 0.01 µM in assay [3]; 0.16 ± 0.02 µM in assay [4]; 0.19 ± 0.01 µM in assay [5].
As to `Cc1[nH]c2ccc(-c3nnc(SCC(=O)N4CCCCC4)o3)cc2c1C` [Compound 9, 2-((5-(2,3-Dimethyl-1H-indol-5-yl)-1,3,4-oxadiazol-2-yl)thio)-1-(piperidin-1-yl)ethan-1-one], the EC50 in assay [1] worked out at 0.09 ± 0.01 µM; in assay [2], 0.08 ± 0.01 µM; in assay [3], 0.07 µM; in assay [4], 0.07 ± 0.01 µM; in assay [5] it was 0.07 ± 0.01 µM.
